According to patent publication US11840686B2, “Modulation of prekallikrein (PKK) expression” (Ionis Pharmaceuticals, Inc., priority 2013, dated 2023):
Strand notation (5' to 3'): a small letter for the sugar, then the base; units joined by * are phosphorothioate-linked, units joined directly phosphodiester-linked; [ ] holds rarer units or linkages, { } end groups; capitals alone tell only the bases. e = 2'-O-(2-methoxyethyl) (MOE); k = constrained ethyl (cEt); [5mC] = 5-methylcytosine; d = 2'-deoxy (DNA)

How the values were obtained:
Type in all cases: cell-based
human PKK mRNA [1] = test: Dose-dependent antisense inhibition of human PKK in HepaRG cells, 0.19-5.00 uM (Example 5); details: for percent inhibition of PKK mRNA, 0.19 μM: 0.19 μM antisense oligonucleotide; for percent inhibition of PKK mRNA, 0.56 μM: 0.56 μM antisense oligonucleotide; for percent inhibition of PKK mRNA, 1.67 μM: 1.67 μM antisense oligonucleotide; for percent inhibition of PKK mRNA, 5.00 μM: 5.00 μM antisense oligonucleotide
Protocol: Cells were plated at a density of 20,000 cells per well and transfected using electroporation with 0.19 μM, 0.56 μM, 1.67 μM, and 5.00 μM concentrations of antisense oligonucleotide. After a treatment period of approximately 16 hours, RNA was isolated from the cells and PKK mRNA levels were measured by quantitative real-time PCR. Human PKK primer probe set RTS3454 was used to measure mRNA levels. PKK mRNA levels were adjusted according to total RNA content, as measured by RIBOGREEN®. The antisense oligonucleotides were tested in a series of experiments that had similar culture conditions.
The half maximal inhibitory concentration (IC50) of each oligonucleotide is also presented.

human PKK mRNA [2] = test: Antisense inhibition of human PKK mRNA in HepaRG cells, 5,000 nM (Example 2); details: HepaRG cells, electroporation with 5,000 nM antisense oligonucleotide, approximately 24 hours, PKK mRNA by RT-PCR (RTS3454), relative to untreated control cells
Summary of the method: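 Percent inhibition of PKK mRNA is reported relative to untreated cells, after adjustment for total RNA by RIBOGREEN. Gapmers of 16–20 nucleosides with 2′-MOE wings were delivered at 5,000 nM by electroporation into HepaRG cells and left for roughly 24 hours before RNA isolation.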

human PKK mRNA [3] = test: Antisense inhibition of human PKK mRNA in HepaRG cells, 1,000 nM, MOE/deoxy/cEt oligonucleotides (Example 3); details: PKK mRNA, HepaRG cells, 1,000 nM antisense oligonucleotide; Table 31
Summary of the method: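 HepaRG cells at 20,000 per well electroporated with 1,000 nM 16-mer MOE/cEt/deoxy gapmers (phosphorothioate, 5-methylcytosine). After about 24 h, PKK mRNA measured by qRT-PCR with primer probe set RTS3454, normalized to RIBOGREEN total RNA. Reported as percent inhibition versus untreated cells.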

[4] = Table 34, HepaRG, electroporation, ~16 h
[5] = Table 34, PKK mRNA, HepaRG, electroporation, ~16 h
[6] = HepaRG cells, electroporation, approximately 16 hours, Table 35
[7] = HepaRG cells, electroporation, approximately 16 hours, Table 38
[8] = 4 point dose response, HepaRG cells, Table 38

In the case of “546158 (e[5mC]*eT*eT*eG*eG*dG*dT*dG*dG*dA*dA*dT*dG*dT*dG*e[5mC]*eA*e[5mC]*e[5mC]*eT; antisense) [compound 546158]”, the “percent inhibition of PKK at 0.19 μM” value (human PKK mRNA [1]; [4]) is reported as 5%, the “percent inhibition of PKK at 0.56 μM” value (human PKK mRNA [1]; [4]) is reported as 45% and the “percent inhibition of PKK at 1.67 μM” value (human PKK mRNA [1]; [4]) is reported as 79%. The “percent inhibition of PKK at 5.00 μM” value (human PKK mRNA [1]; [4]) was 83%, the IC50 (human PKK mRNA [1]; [5]) was 700 nM and the “% inhibition” value (human PKK mRNA [2]; Table 5 experiment) was 95%.

“546188 (antisense e[5mC]*eT*e[5mC]*e[5mC]*eT*dT*dT*dA*dT*dA*dA*dA*dT*dG*dT*e[5mC]*eT*e[5mC]*eG*eA) [compound 546188]” was tested, and the “percent inhibition of PKK at 5.00 μM” value (human PKK mRNA [1]; HepaRG cells, electroporation, approximately 16 hours, Table 41) was 97%, the “percent inhibition of PKK at 0.19 0μM” value (human PKK mRNA [1]; 0.19 0μM, HepaRG cells, electroporation, approximately 16 hours, Table 41) was 27% and the “percent inhibition of PKK at 0.56 0μM” value (human PKK mRNA [1]; 0.56 0μM, HepaRG cells, electroporation, approximately 16 hours, Table 41) was 69%. For the same substance, the “percent inhibition of PKK at 1.67 1μM” value (human PKK mRNA [1]; 1.67 1μM, HepaRG cells, electroporation, approximately 16 hours, Table 41) was 88%, the IC50 (human PKK mRNA [1]; 4 point dose response, HepaRG cells, Table 41) was 400 nM and the “percent inhibition of PKK at 0.19 μM” value (human PKK mRNA [1]; [4]) was 36%. The “percent inhibition of PKK at 0.56 μM” value (human PKK mRNA [1]; [4]) was 55%, the “percent inhibition of PKK at 1.67 μM” value (human PKK mRNA [1]; [4]) was 81% and the “percent inhibition of PKK at 5.00 μM” value (human PKK mRNA [1]; [4]) was 83%. For the same substance, the IC50 (human PKK mRNA [1]; [5]) was 400 nM and the “% inhibition” value (human PKK mRNA [2]; Table 6 experiment) was 95%.

“546190 (antisense e[5mC]*eT*e[5mC]*eT*e[5mC]*dA*dT*dA*dT*d[5mC]*dA*dA*d[5mC]*dT*d[5mC]*e[5mC]*eT*eT*eT*eA) [compound 546190]” was tested, and the “percent inhibition of PKK at 0.19 μM” value (human PKK mRNA [1]; [6]) was 33%, the “percent inhibition of PKK at 0.56 μM” value (human PKK mRNA [1]; [6]) was 65% and the “percent inhibition of PKK at 1.67 μM” value (human PKK mRNA [1]; [6]) was 86%. The IC50 (human PKK mRNA [1]; 4 point dose response, HepaRG cells, Table 35) was 400 nM, the “percent inhibition of PKK mRNA, 0.19 μM” value (human PKK mRNA [1]; HepaRG cells) was 21% and the “percent inhibition of PKK mRNA, 0.56 μM” value (human PKK mRNA [1]; HepaRG cells) was 34%. For the same substance, the “percent inhibition of PKK mRNA, 1.67 μM” value (human PKK mRNA [1]; HepaRG cells) was 76%, the “percent inhibition of PKK mRNA, 5.00 μM” value (human PKK mRNA [1]; HepaRG cells) was 98% and the IC50 (human PKK mRNA [1]; HepaRG cells, 0.19-5.00 μM) was 700 nM. For the same substance, the “% inhibition” value (human PKK mRNA [2]; Table 6 experiment) was 92%.

In the case of “546195 (antisense eG*e[5mC]*eT*eA*eA*d[5mC]*d[5mC]*dT*dT*dA*dG*dA*d[5mC]*dA*d[5mC]*eA*eT*eT*eA*eA) [compound 546195]”, the “percent inhibition of PKK at 0.19 μM” value (human PKK mRNA [1]; [7]) is reported as 34%, the “percent inhibition of PKK at 0.56 μM” value (human PKK mRNA [1]; [7]) is reported as 51% and the “percent inhibition of PKK at 1.67 μM” value (human PKK mRNA [1]; [7]) is reported as 79%. The “percent inhibition of PKK at 5.00 μM” value (human PKK mRNA [1]; [7]) was 92%, the IC50 (human PKK mRNA [1]; [8]) was 500 nM and the “percent inhibition of PKK mRNA, 0.19 μM” value (human PKK mRNA [1]; HepaRG cells) was 0%. The “percent inhibition of PKK mRNA, 0.56 μM” value (human PKK mRNA [1]; HepaRG cells) was 27%, the “percent inhibition of PKK mRNA, 1.67 μM” value (human PKK mRNA [1]; HepaRG cells) was 91% and the “percent inhibition of PKK mRNA, 5.00 μM” value (human PKK mRNA [1]; HepaRG cells) was 94%. The IC50 (human PKK mRNA [1]; HepaRG cells, 0.19-5.00 μM) was 900 nM and the “% inhibition” value (human PKK mRNA [2]; Table 6 experiment) was 83%.

“546198 (antisense eT*e[5mC]*eT*eT*e[5mC]*dA*dA*d[5mC]*dA*d[5mC]*dT*dG*d[5mC]*dT*dA*eA*e[5mC]*e[5mC]*eT*eT) [compound 546198]” was tested, and the “percent inhibition of PKK at 0.19 μM” value (human PKK mRNA [1]; [7]) was 7%, the “percent inhibition of PKK at 0.56 μM” value (human PKK mRNA [1]; [7]) was 3% and the “percent inhibition of PKK at 1.67 μM” value (human PKK mRNA [1]; [7]) was 45%. For the same substance, the “percent inhibition of PKK at 5.00 μM” value (human PKK mRNA [1]; [7]) was 92%, the IC50 (human PKK mRNA [1]; [8]) was 1300 nM and the “% inhibition” value (human PKK mRNA [2]; Table 6 experiment) was 85%.

In the case of “548660 (antisense eA*eT*kG*d[5mC]*dT*dT*dA*d[5mC]*d[5mC]*dT*dT*dT*d[5mC]*kT*k[5mC]*e[5mC]) [compound 548660]”, the “% inhibition” value (human PKK mRNA [3]) is reported as 0%.

In the case of “548661 (antisense eA*e[5mC]*kG*dA*d[5mC]*d[5mC]*d[5mC]*dA*d[5mC]*dT*d[5mC]*d[5mC]*dA*kT*kG*eT) [compound 548661]”, the “% inhibition” value (human PKK mRNA [3]) is reported as 18%.

“548662 (antisense eT*eG*k[5mC]*dT*dT*dA*dA*dA*dA*dG*dT*d[5mC]*dT*k[5mC]*k[5mC]*e[5mC]) [compound 548662]” was tested, and the “% inhibition” value (human PKK mRNA [3]) was 5%.

With “548663 (antisense eG*e[5mC]*k[5mC]*d[5mC]*dT*dA*dG*dA*dA*dG*dG*dG*d[5mC]*k[5mC]*k[5mC]*eA) [compound 548663]” the “% inhibition” value (human PKK mRNA [3]) was 20%.

“548664 (antisense eG*e[5mC]*kG*dG*dG*dT*dG*dG*dT*d[5mC]*dT*dT*dG*k[5mC]*kA*e[5mC]) [compound 548664]” was tested, and the “% inhibition” value (human PKK mRNA [3]) was 38%.

With “548665 (antisense eG*e[5mC]*kT*d[5mC]*d[5mC]*d[5mC]*dG*dG*d[5mC]*d[5mC]*dA*dT*dT*kA*kG*e[5mC]) [compound 548665]” the “% inhibition” value (human PKK mRNA [3]) was 8%.

With “548666 (antisense eT*e[5mC]*kT*d[5mC]*d[5mC]*dA*dT*dA*dG*dT*dG*dA*dG*kA*k[5mC]*eG) [compound 548666]” the “% inhibition” value (human PKK mRNA [3]) was 1%.

For “548669 (antisense eA*eA*kT*dG*d[5mC]*dA*dG*dG*d[5mC]*d[5mC]*dA*dG*d[5mC]*kA*kT*e[5mC]) [compound 548669]”, the “% inhibition” value (human PKK mRNA [3]) was 42%.

In the case of “548670 (antisense eG*eA*kA*dA*dA*dG*d[5mC]*d[5mC]*d[5mC]*dT*d[5mC]*d[5mC]*dG*kA*kG*e[5mC]) [compound 548670]”, the “% inhibition” value (human PKK mRNA [3]) is reported as 15%.

With “548671 (antisense e[5mC]*eA*kA*d[5mC]*dA*dA*dT*d[5mC]*d[5mC]*dA*dA*dA*dG*k[5mC]*k[5mC]*eT) [compound 548671]” the “% inhibition” value (human PKK mRNA [3]) was 3%.

With “548672 (antisense e[5mC]*e[5mC]*k[5mC]*d[5mC]*d[5mC]*d[5mC]*dA*dG*dA*dA*dA*dT*d[5mC]*k[5mC]*k[5mC]*eA) [compound 548672]” the “% inhibition” value (human PKK mRNA [3]) was 40%.
